These results are taken from ChEMBL document CHEMBL3396968, “Isolation and cytotoxicity evaluation of taxanes from the barks of Taxus wallichiana var. mairei” (Bioorg Med Chem Lett, 2015).

In one test the test system is A2780. Put plainly: Antiproliferative activity against human A2780 cells assessed as growth inhibition after 48 hrs by sulforhodamine B assay. The class given is functional, cell-based. The following applies: A2780, 48 h.
Test [1] in a line: Antiproliferative activity against mouse NIH/3T3 cells assessed as growth inhibition after 48 hrs by sulforhodamine B assay. Conditions: NIH3T3, 48 h. Format: cell-based.
Test [2] can be described thus: Antiproliferative activity against human A2780/TAX cells assessed as growth inhibition after 48 hrs by sulforhodamine B assay. Format: functional, cell-based.
A short description of test [3]: Antiproliferative activity against human HCT8/VCT cells assessed as growth inhibition after 48 hrs by sulforhodamine B assay. Format: functional, cell-based.
Another test has as its system A549. Put plainly: Antiproliferative activity against human A549 cells assessed as growth inhibition after 48 hrs by sulforhodamine B assay. The class given is functional, cell-based. The following applies: A549, 48 h.
The next test has as its system HepG2. Put plainly: Antiproliferative activity against human HepG2 cells assessed as growth inhibition after 48 hrs by sulforhodamine B assay. The following applies: HepG2, 48 h. Format: functional, cell-based.
The subject of another test is SW480. Put plainly: Antiproliferative activity against human SW480 cells assessed as growth inhibition after 48 hrs by sulforhodamine B assay. The class given is functional, cell-based. Conditions: SW480, 48 h.
Test [4] can be described thus: Antiproliferative activity against human MCF7/DX cells assessed as growth inhibition after 48 hrs by sulforhodamine B assay. Format: functional, cell-based.
The nature of test [5]: Antiproliferative activity against human HCT8 cells assessed as growth inhibition after 48 hrs by sulforhodamine B assay. The following applies: HCT-8, 48 h. The class given is functional, cell-based.
The test system of a further test is MCF7. Put plainly: Antiproliferative activity against human MCF7 cells assessed as growth inhibition after 48 hrs by sulforhodamine B assay. Format: functional, cell-based. The following applies: MCF7, 48 h.
A short description of test [6]: Antiproliferative activity against human A549/CDDP cells assessed as growth inhibition after 48 hrs by sulforhodamine B assay. Format: functional, cell-based. Conditions: A549, 48 h.

In the case of `CCCCCC(=O)N[C@@H](c1ccccc1)[C@@H](O)C(=O)O[C@H]1C[C@@]2(O)[C@@H](OC(=O)c3ccccc3)[C@@H]3[C@]4(OC(C)=O)CO[C@@H]4C[C@H](O[C@@H]4OC[C@@H](O)[C@H](O)[C@H]4O)[C@@]3(C)C(=O)[C@H](O)C(=C1C)C2(C)C`, the IC50 with A2780 was 1.5 µM; in test [1], above 25 µM; in test [2], above 25 µM; in test [3], above 25 µM; in the test on A549, 19 µM; in the test with HepG2, above 25 µM. Besides, the 50% inhibitory concentration (IC50) in the test on SW480 is above 25 µM; in test [4] it was above 25 µM; in test [5], 8.5 µM; in the test with MCF7, above 25 µM; in [6], 0.64 µM.
